Legend:
[1] = test system: HMPV clinical isolate TN/1501/A1; assay: HMPV antiviral assay Method-B (clinical isolate TN/1501/A1 in LLC-MK2 cells, ATP-Lite readout); format: cell-based, Human metapneumovirus (HMPV); conditions: human metapneumovirus, LLC-MK2, 144 h, hMPV WT1501 (clinical isolate TN/1501/A1), 6 days
Outline: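 LLC-MK2 cells infected in suspension with TN/1501/A1 at MOI 0.014 in serum-free medium with 2 μg/mL TPCK-trypsin (final), incubated 6 days at 37° C. Compounds tested in duplicate, 10-point 3-fold dilutions from 10 μM. Cell health read by ATP-Lite luminescence, normalised to virus-only and cells-only controls; EC50 by four-parameter logistic fit.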

[2] = test system: genotype A, "Long" strain RSV; assay: RSV-A assay (CPE protection in Hep-2 cells, ATPlite readout); format: cell-based, Human respiratory syncytial virus (HRSV); conditions: human respiratory syncytial virus, genotype A “Long” strain RSV, MOI 0.1, CPE protection, read-out: Human RSV-A (“Long”)
Outline: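 Protection from RSV-induced cytopathic effect measured by ATP content (ATPlite) after 5-day culture. Infection used genotype A Long virus at MOI 0.1 on 8,000 Hep-2 cells per well, with compound serially diluted 2-fold; values are EC50.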

Row | Compound | EC50 [1] [µM] | EC50 [2] [µM]
1 | COc1cc(C(=O)NC[C@](O)(c2cc3c(c(-c4ccc(C#N)c(Cl)c4)n2)OC[C@]3(C)C(N)=O)C(F)(F)F)cc2cc(Cl)c(C)nc12 [Example 578] | > 0.5 | < 0.2
2 | COc1cc(C(=O)NC[C@](O)(c2cc3c(c(-c4ccc(C(F)(F)F)c(Cl)c4)n2)OC[C@]3(C)C(N)=O)C(F)(F)F)cc2cn(C3CC3)nc12 [Example 579] | > 0.5 | < 0.2
3 | COc1cc(C(=O)NC[C@](O)(c2cc3c(c(-c4ccc(C(F)(F)F)c(Cl)c4)n2)OC[C@]3(C)C(N)=O)C(F)(F)F)cc2cn(C(F)F)nc12 [Example 580] | > 0.5 | < 0.2
4 | COc1cc(C(=O)NC[C@](O)(c2cc3c(c(-c4ccc(C(F)(F)F)c(Cl)c4)n2)OC[C@]3(C)C(N)=O)C(F)(F)F)cc2cc(Cl)c(C)nc12 [Example 581] | > 0.5 | < 0.2
5 | COc1cc(C(=O)NC[C@](O)(c2cc3c(c(-c4cnc(C#N)c(Cl)c4)n2)OC[C@]3(C)C(N)=O)C(F)(F)F)cc2cn(C(F)F)nc12 [Example 582] | > 0.5 | < 0.2
6 | COc1cc(C(=O)NC[C@](O)(c2cc3c(c(-c4cnc(C#N)c(Cl)c4)n2)OC[C@]3(C)C(N)=O)C(F)(F)F)cc2cn(C3CC3)nc12 [Example 583] | > 0.5 | < 0.2
7 | COc1cc(C(=O)NC[C@](O)(c2cc3c(c(-c4ccc(Cl)cc4)n2)OC[C@]3(C)C(N)=O)C(F)(F)F)cc2cn(C3CC3)nc12 [Example 585] | > 0.5 | < 0.2
8 | COc1cc(C(=O)NC[C@](O)(c2cc3c(c(-c4ccc(Cl)cc4)n2)OC[C@]3(C)C(N)=O)C(F)(F)F)cc2cn(C(F)F)nc12 [Example 586] | > 0.5 | < 0.2
9 | COc1cc(C(=O)NC[C@](O)(c2cc3c(c(-c4cnc(Cl)c(Cl)c4)n2)OC[C@]3(C)C(N)=O)C(F)(F)F)cc2cn(C3CC3)nc12 [Example 587] | > 0.5 | < 0.2
10 | COc1cc(C(=O)NC[C@](O)(c2cc3c(c(-c4cnc(Cl)c(Cl)c4)n2)OC[C@]3(C)C(N)=O)C(F)(F)F)cc2cc(Cl)c(C)nc12 [Example 588] | > 0.5 | < 0.2
11 | COc1cc(C(=O)NC[C@](O)(c2cc3c(c(-c4cnc(Cl)c(Cl)c4)n2)OC[C@]3(C)C(N)=O)C(F)(F)F)cc2cn(C(F)F)nc12 [Example 589] | > 0.5 | < 0.2
12 | C[C@]1(C(N)=O)COc2c1cc([C@@](O)(CNC(=O)c1cc(O)c3nn(C4CC4)cc3c1)C(F)(F)F)nc2-c1ccc(F)cc1 [Example 590] | > 0.5 | < 0.2
13 | COc1cc(C(=O)NC[C@](O)(c2cc3c(c(-c4ccc5c(c4)OC(F)(F)O5)n2)OC[C@]3(C)C(N)=O)C(F)(F)F)cc2cn(C(F)F)nc12 [Example 591] | < 0.5 | < 0.2
14 | C[C@]1(C(N)=O)COc2c1cc([C@@](O)(CNC(=O)c1ccn3nc(C4CC4)cc3c1)C(F)(F)F)nc2-c1ccc2c(c1)OC(F)(F)O2 [Example 592] | < 0.5 | < 0.2
15 | COc1cc(C(=O)NC[C@](O)(c2cc3c(c(-c4csc5c(F)cccc45)n2)OC[C@]3(C)C(N)=O)C2CC2)cc2cn(C3CC3)nc12 [Example 593] | < 0.5 | < 0.2
16 | COc1cc(C(=O)NC[C@](O)(c2cc3c(c(-c4csc5c(F)cccc45)n2)OC[C@]3(C)C(N)=O)C2CC2)cc2cn(C(F)F)nc12 [Example 594] | < 0.5 | < 0.2
17 | COc1cc(C(=O)NC[C@](O)(c2cc3c(c(-c4csc5c(F)cccc45)n2)OC[C@]3(C)C(N)=O)C2CC2)cc2cc(Cl)c(C)nc12 [Example 595] | < 0.5 | < 0.2
18 | COc1cc(C(=O)NC[C@](O)(c2cc3c(c(-c4csc5c(F)cccc45)n2)OC[C@]3(C)C(N)=O)C(F)(F)F)cc2cc(Cl)c(C)nc12 [Example 596] | < 0.5 | < 0.2
19 | C[C@]1(C(N)=O)COc2c1cc([C@@](O)(CNC(=O)c1cc(OC3CC3)n3nc(C4CC4)cc3c1)C(F)(F)F)nc2-c1csc2c(F)cccc12 [Example 597] | > 0.5 | < 0.2
20 | COc1cc(C(=O)NC[C@](O)(c2cc3c(c(-c4csc5c(F)cccc45)n2)OC[C@]3(C)C(N)=O)C(F)(F)F)cc2cc(C3CC3)nn12 [Example 598] | < 0.5 | < 0.2
21 | COc1cc(C(=O)NC[C@](O)(c2cc3c(c(-c4csc5c(F)cccc45)n2)OC[C@]3(C)C(N)=O)C(F)(F)F)cc2cn(C3(F)CC3)nc12 [Example 599] | < 0.5 | < 0.2
22 | COc1cc(C(=O)NC[C@](O)(c2cc3c(c(-c4csc5c(F)cccc45)n2)OC[C@]3(C)C(N)=O)C(F)(F)F)cc2cn(C(F)F)nc12 [Example 600] | < 0.5 | < 0.2

Row | Compound | EC50 [1] [µM] | EC50 [2] [µM]
23 | Cc1cnc2c(Cl)cc(C(=O)NC[C@](O)(c3cc4c(c(-c5csc6c(F)cccc56)n3)OC[C@]4(C)C(N)=O)C(F)(F)F)cc2c1 [Example 601] | < 0.5 | < 0.2
24 | COc1cc(C(=O)NC[C@](O)(c2cc3c(c(-c4csc5c(F)cccc45)n2)OC[C@]3(C)C(N)=O)C(F)(F)F)cc2cc(Br)cnc12 [Example 602] | < 0.5 | < 0.2
25 | Cc1nc2c(OC3CC3)cc(C(=O)NC[C@](O)(c3cc4c(c(-c5csc6c(F)cccc56)n3)OC[C@]4(C)C(N)=O)C(F)(F)F)cc2cc1Cl [Example 603] | > 0.5 | < 0.2
26 | COc1cc(C(=O)NC[C@](O)(c2cc3c(c(-c4csc5c(F)cccc45)n2)OC[C@]3(C)C(N)=O)C2CC2)cc2cn(C3(F)CC3)nc12 [Example 604] | < 0.5 | < 0.2
27 | C[C@]1(C(N)=O)COc2c1cc([C@@](O)(CNC(=O)c1cc(OC3CC3)c3nn(C4(F)CC4)cc3c1)C(F)(F)F)nc2-c1csc2c(F)cccc12 [Example 605] | < 0.5 | < 0.2
28 | C[C@]1(C(N)=O)COc2c1cc([C@@](O)(CNC(=O)c1cc(OC3CC3)c3nn(C(F)F)cc3c1)C(F)(F)F)nc2-c1csc2c(F)cccc12 [Example 606] | < 0.5 | < 0.2
29 | C[C@]1(C(N)=O)COc2c1cc([C@@](O)(CNC(=O)c1cc(OC3CC3)c3nn(C4(F)CC4)cc3c1)C1CC1)nc2-c1csc2c(F)cccc12 [Example 607] | < 0.5 | < 0.2
30 | C[C@]1(C(N)=O)COc2c1cc([C@@](O)(CNC(=O)c1cc(F)c3nn(C4CC4)cc3c1)C1CC1)nc2-c1csc2c(F)cccc12 [Example 608] | < 0.5 | < 0.2
31 | C[C@]1(C(N)=O)COc2c1cc([C@@](O)(CNC(=O)c1cc(Cl)c3nn(C4CC4)cc3c1)C(F)(F)F)nc2-c1csc2c(F)cccc12 [Example 609] | < 0.5 | < 0.2
32 | C[C@]1(C(N)=O)COc2c1cc([C@@](O)(CNC(=O)c1cc(OCC3CC3)c3nn(C4(F)CC4)cc3c1)C(F)(F)F)nc2-c1csc2c(F)cccc12 [Example 610] | < 0.5 | < 0.2
33 | C[C@]1(C(N)=O)COc2c1cc([C@@](O)(CNC(=O)c1cc(OCC(F)F)c3nn(C4(F)CC4)cc3c1)C(F)(F)F)nc2-c1csc2c(F)cccc12 [Example 611] | < 0.5 | < 0.2
34 | C[C@]1(C(N)=O)COc2c1cc([C@@](O)(CNC(=O)c1cc(OCCF)c3nn(C4(F)CC4)cc3c1)C(F)(F)F)nc2-c1csc2c(F)cccc12 [Example 612] | < 0.5 | < 0.2
35 | COc1cc(C(=O)NC[C@](O)(c2cc3c(c(-c4cc(Cl)c(F)cc4F)n2)OC[C@]3(C)C(N)=O)C(F)(F)F)cc2cn(C3(F)CC3)nc12 [Example 613] | < 0.5 | < 0.2
36 | COc1cc(C(=O)NC[C@](O)(c2cc3c(c(-c4cc(Cl)c(F)cc4F)n2)OC[C@]3(C)C(N)=O)C(F)(F)F)cc2cn(C(F)F)nc12 [Example 614] | > 0.5 | < 0.2
37 | C[C@]1(C(N)=O)COc2c1cc([C@@](O)(CNC(=O)c1cc(OC3CC3)c3nn(C4(F)CC4)cc3c1)C(F)(F)F)nc2-c1cc(Cl)c(F)cc1F [Example 615] | < 0.5 | < 0.2
38 | C[C@]1(C(N)=O)COc2c1cc([C@@](O)(CNC(=O)c1cc(OCC3CC3)c3nn(C4(F)CC4)cc3c1)C(F)(F)F)nc2-c1cc(Cl)c(F)cc1F [Example 616] | < 0.5 | < 0.2
39 | C[C@]1(C(N)=O)COc2c1cc([C@@](O)(CNC(=O)c1cc(OCC(F)F)c3nn(C4(F)CC4)cc3c1)C(F)(F)F)nc2-c1cc(Cl)c(F)cc1F [Example 617] | < 0.5 | < 0.2
40 | C[C@]1(C(N)=O)COc2c1cc([C@@](O)(CNC(=O)c1cc(OCCF)c3nn(C4(F)CC4)cc3c1)C(F)(F)F)nc2-c1cc(Cl)c(F)cc1F [Example 618] | < 0.5 | < 0.2
41 | C[C@]1(C(N)=O)COc2c1cc([C@@](O)(CNC(=O)c1cc(Cl)c3nn(C4CC4)cc3c1)C(F)(F)F)nc2-c1cc(Cl)c(F)cc1F [Example 619] | < 0.5 | < 0.2
42 | COc1cc(C(=O)NC[C@](O)(c2cc3c(c(-c4cc(Cl)c(F)cc4F)n2)OC[C@]3(C)C(N)=O)C(F)(F)F)cc2cc(Cl)c(C)nc12 [Example 620] | < 0.5 | < 0.2
43 | COc1cc(C(=O)NC[C@](O)(c2cc3c(c(-c4cc(Cl)c(F)cc4F)n2)OC[C@]3(C)C(N)=O)C(F)(F)F)cc2cc(Br)cnc12 [Example 621] | < 0.5 | < 0.2
44 | C[C@]1(C(N)=O)COc2c1cc([C@@](O)(CNC(=O)c1cc(Cl)c3nn(C4CC4)cc3c1)C1CC1)nc2-c1csc2c(F)cccc12 [Example 622] | < 0.5 | < 0.2
